In US20250302862A1, “SMALL RNA DRUG FOR INHIBITING ACTIVITY OF CANCER CELLS” (Institute of Basic Medical Sciences Chinese Academy of …, priority 2022, published 2025):

Legend:
H460 cells = experiment: Cell migration (scratch assay, Transwell); format: cell-based, human; conditions: 100 nmol/L, 48 h
Method: Method 1: H460 cells with a cell density of more than 90% in 10 cm^2 dishes were plated in 12-well plates using serum-free medium according to the cell growth rate. After 12 h, 200 uL pipette tips were used to draw straight lines in the wells. The floating cells were washed away and transfection was performed, and the groups (three wells per group, two lines per well) were divided as follows: • blank control group: 200 uL of opti-MEM per well • negative control group (NC group) and experimental group: • A. 100 uL of opti-MEM and 2 uL of iMax were mixed well for 5 min • B. 100 uL of opti-MEM and 5 uL of small RNA (final concentration 100 nmol/L) were mixed well • C. solution A and solution B were mixed well and let stand for 15 min, and then was added to each well at a 200 uL system • Note: 100 uL of nuclease-free water was added to 2 nmol of small RNA dry powder for dissolution at a storage concentration of 20 umol/L
After 48 h, the supernatant was discarded and images were taken under a microscope.
Method 2: H460 cells with a cell density of more than 90% in 10 cm^2 dishes were digested and then resuspended with 1 mL of serum-free medium and counted. 100,000 cells (100 uL) were plated in the upper chamber, and complete medium with 10% FBS was added to the lower chamber of each Transwell (migration chamber). […]
(§1) 1) H460 cells with a cell density of more than 90% in 10 cm^2 dishes were digested and then resuspended with 1 mL of serum-free medium and counted. […]
as §1

[1] = system: primary lung cancer Kras^LSL-G12Dp53^fl/fl (KP) mouse model; experiment: Transcriptome sequencing of lung tissue, pathway clustering of differentially expressed genes; format: in vivo; conditions: KP mouse lung tissue after 30 days of dosing, metacore pathway clustering, vs NC group
Description: The mouse model of primary lung cancer was Kras^LSL-G12Dp53^fl/fl (KP). Mice were weighed and assigned to the NC group and HQi-sRNA-2 group randomly. The NC group was the negative control, in which a sphingosine(d18:1)-NC-sRNA herbal medicine delivery system was constructed from NC-sRNA. The HQi-sRNA-2 group was the experimental group, in which a sphingosine(d18:1)-HQi-sRNA-2 herbal medicine delivery system was constructed from HQi-sRNA-2. The herbal medicine delivery system was constructed by heating and mixing 10 nmol of sRNA, 100 ug of sphingosine(d18:1) and 300 ul of sterile enzyme-free water in a water bath at 90° C. for 15 minutes. Mouse lung tissue was collected after 30 days of dosing, and the total RNA was extracted and subjected to non-strand-specific transcriptome sequencing. The differentially expressed genes in the experimental group and the control group were analyzed and calculated by a bioinformatics software, and the biological pathways in which the differentially expressed genes mainly functioned were analyzed by clustering using the metacore database. The pathways of the differentially expressed genes were visualized by the visualization software package ggplot2.
(§2) The mouse model of primary lung cancer was Kras^LSL-G12Dp53^fl/fl (KP). Mice were weighed and assigned to the NC group and MDM-sRNA-39 group randomly. […] The differentially expressed genes in the experimental group and the control group were analyzed and calculated by a bioinformatics software, and the biological pathways in which the differentially expressed genes mainly functioned were analyzed by clustering using the metacore database. […]
as §2, with “(KP).” for “(KP). Mice were weighed and assigned to the NC group and MDM-sRNA-39 group randomly.”

| Substance | cell migration (H460 cells) | functions of genes down-regulated at transcriptional level [1] |
| --- | --- | --- |
| MDM-sRNA-39: small RNA derived from Maytenus hookeri, sequence GGGAUUGUAGUUCAAUUGGUCAGAGCACC (listed as RNA, chemistry not given here) | inhibits | mainly clustered in oncology, immunology and other related biological pathways |
| HQi-sRNA-2: small RNA derived from Scutellaria baicalensis, sequence AUGGUUCGAUUCCGGAGAGGG (listed as RNA, chemistry not given here) | inhibits | mainly clustered in oncology, immunology and other related biological pathways |
| MDM-sRNA-163: small RNA derived from Maytenus hookeri, sequence UGACUCUAGUCCGACUUUGUGAAAUGACU (listed as RNA, chemistry not given here) | inhibits | mainly clustered in oncology, immunology, and other related biological pathways |
